Counter-ions that a name gives are not always drawn. Like-named read-outs stand apart in the source and are kept apart here.
What was measured:
[1] = tested on: human forearm skin; experiment: Procedure B primary irritation study in humans (Finn Chambers, 24 hours, 0-4 erythema score)
Excerpt: Procedure B Primary Irritation Study in Human- Alternative Method Finn Chambers (Epitest, Ltd OY, Tuusula, Finland) for epicutaneous testing of irritation on Scanpor adhesive (Norgesplaster A/S, Norway; 10 chambers) were used to test the primary irritancy of the test compound or composition. The formulations were introduced into the Finn Chambers using the following procedures. The adhesive covering was removed and the filter paper dots were placed into the chambers to be used. A disposable pasteur pipette was used to add one drop of formulation onto the filter paper. The pipette was then discarded. This was repeated for each formulation, up to 10 formulations. The subjects' forearm was lowered onto the scanpor adhesive and pressure was applied to insure adhesion. Two strips of 2" paper tape were overlapped over the scanpor adhesive. This remained in place for 24 hours, at which time it was removed and scored immediately using the table below. […]
Procedure B was used to evaluate the irritancy of physiologically active amines with or without complexation or solvation as described in more detail below.

[2] = tested on: human forearm skin; settings: in vivo
Description: Patches of the saturated film 2 cm^2 in area were placed by test subjects on their own forearm skin and held in place by clear, nonocclusive adhesive (Tegaderm), allowing constant observation of the skin under the patch. After 17 hours, skin damage was evaluated by visual observation. The damage was ranked using the following scale: 1 (no discoloration, no erythema); 2 (pink coloration, slight erythema); 3 (reddening, moderate erythema, no burning); 4 (reddening and burning, moderate erythema); 5 (erythema and edema, with or without burning); 6 (severe erythema, edema, and burning); and 7 (severe erythema, severe burning, blistering, and edema).
A physiologically active amine in the free base form can be evaluated for skin irritancy by Procedures A, B, or C, set out above. Alternatively, irritation can be determined by other conventional patch test involving maintaining the amine in contact with the skin for 24 hours, and then observing the skin. The results are evaluated using the scales provided for Procedures A, B, or C as defined herein.

[3] = tested on: skin; settings: WO 86/00806; cited from earlier work
[4] = tested on: skin; settings: WO 86/00806; cited from earlier work; remark: listed apart in the source
[5] = tested on: skin
[6] = Description: Given this information and the empirically determined transdermal flux rate of the material, the required patch size in centimeters^2 for effective dosing can be determined. […] The estimated patch size is determined by dividing the calculated therapeutically effective dose rate by the in vitro transdermal flux rate.
The estimated patch size for such a composition can be calculated as described in detail above. […] Since water soluble salt forms of physiologically active amines are not at all soluble in nonpolar, nonvolatile solvents, these solvents cannot be used to increase their transdermal flux rate.
The transdermal patch sizes required to deliver an effective dosage of a selected group of physiologically active amines were evaluated as described above. […] DEET, however, is not an appropriate solvent for extended transdermal drug delivery because it is not a United States Pharmacopeia accepted ingredient.

[7] = cited from earlier work
[8] = Transdermal flux rate through human skin in vitro (flow-through diffusion cell)
Description: A surgically-removed human skin source was used for all in vitro diffusion cell tests. […] Briefly, the full-thickness skin was immersed in distilled water heated to 60±1 degrees C for 45 seconds. The epidermal-stratum corneum layers were then peeled from the dermis. The epidermis-stratum corneum layers were then excised with a cork borer into circular disks 1.4 cm in diameter.
The skin was then mounted onto a Teflon flow-through diffusion cell. […] The skin sample of the donor portion of the diffusion cell was secured in place into the receptor cell. The flow-through cell consisted of a Teflon receptor cell with an exposed skin surface area of 0.32 cm^2 and a receptor cell volume of 0.13 mi. Sink conditions were maintained by pumping phosphate-buffered saline under the skin in the receptor cell at about 3 ml/hr. Thus, the receptor volume was replaced about 23 times per hour. These cells were then mounted on a water-jacketedbracket which maintained the receptor solution in the cells at 33 degrees C. The receptor media which was pumped under the cells was degassed in order to reduce air bubble formation under the skin. […]
Liquid scintillation fluor was added directly to the sample vials so that they could be measured with minimal liquid transfers and handling. The sample vials were then analyzed with appropriate quench correction techniques by liquid scintillation spectroscopy. […]

[9] = tested on: rabbit back skin; experiment: Procedure C primary skin irritation tests in animals; settings: 24 hour exposure, scored 24 and 72 hours
Description: Procedure C Primary Skin Irritation Tests in Animals Tests were performed on young adult albino rabbits (New Zealand White rabbits). Six rabbits were used for each test. The rabbits were prepared for the test by clipping the hair from the backs of the rabbits and any rabbit showing skin damage from the clipping was rejected from the testing. The application sites for the transdermal drug delivery (TDD) patch was intact skin. As an example, a formulation containing the test composition was incorporated into Poroplastic® transdermal patches. One TDD patch containing the test material was applied to one side of the rabbit's back. […] A one (1) inch square gauze patch, two single layers thick, was used to cover the test TDD patch. The animals were immobilized with patches secured in place by adhesive tape. The entire trunk of the animal was then wrapped with an impervious material for the twenty-four (24) hour exposure period. After 24 hours of exposure the patches were removed and the resulting reactions evaluated on the basis of the scoring system indicated below. Observations were again made at the end of a total of 72 hours (48 hours after the first reading). […]
After 24 hours of exposure the patches were removed and the resulting reactions evaluated on the basis of scores as described above.

[10] = tested on: skin; settings: oral form; Physician's Desk Reference; cited from earlier work
[11] = Procedure B, human forearm, 24 hours, score 0-4

With CN(C)CCC(c1ccc(Cl)cc1)c1ccccn1 (stereo not drawn) [Chlorpheniramine Salicylate (1:1 M), Chlorpheniramine Salicylate] the “Erythema Rating” value ([1]; Procedure B, human forearm, 24 hours, score 0-4, listed as Chlorpheniramine salicylate (1:1 molar ratio)) was 0.0 and the “Irritation Rating (1-7)” value [2] was 1.0.
With CCCCC/C=C\C/C=C\CCCCCCCC(=O)O [Linoleic acid] the “Erythema Rating” value [1, 11] was 0.
In the case of CCCCCCCC/C=C\CCCCCCCC(=O)O [Oleic acid], the “Erythema Rating” value ([1]; in vivo) is reported as 0.
In the case of C=CCCCCCCCCC(=O)O [Undecylenic acid], the “Erythema Rating” value ([1]; in vivo) is reported as 0.
In the case of CN1CCC(=C2c3ccccc3CCc3cccnc32)CC1 [azatadine], the “dermal penetration (in words)” value [3] is given as “good dermal penetration” and the “dermal irritation or sensitization (in words)” value [4] is given as “no dermal irritation or sensitization”.
With CN(C)CCC(c1ccc(Br)cc1)c1ccccn1 (stereo not drawn) [brompheniramine maleate] the “skin irritation (in words)” value ([5]; in vivo) was “minimally irritating”.
With CCCCCCCCCCCCCCCCCC(=O)OCCCC [butyl stearate] the “Erythema Rating” value ([1]; in vivo) was 0.
In the case of CN(C)CCC(c1ccc(Cl)cc1)c1ccccn1 (stereo not drawn) [chlorpheniramine maleate], the “skin irritation (in words)” value ([5]; procedure not specified) is reported as “minimally irritating”, the “Erythema Rating” value ([1]; Procedure B, human forearm, 24 hours, score 0-4, listed as Chlorpheniramine maleate (1:1 molar ratio)) is reported as 0.0 and the “Irritation Rating (1-7)” value [2] is reported as 1.0.
For CN(C)CCC(c1ccc(Cl)cc1)c1ccccn1 (stereo not drawn) [chlorpheniramine], the “Erythema Rating” value [1, 11] was 4.0 and the “estimated flux needed to achieve therapeutic blood levels” value [6] was 90 µg/h.
For CN(C)CC[C@@H](c1ccc(Br)cc1)c1ccccn1 [dexbrompheniramine], the effective blood concentration ([7]; in vivo) is listed as 5.3 ng/mL and the cal dose rate [6] is listed as 98 µg/h.
For CN(C)CCOC(c1ccccc1)c1ccccc1 [diphenhydramine hydrochloride], the “transdermal flux / skin penetration (in words)” value ([8]; human skin) was “do not permeate the skin with a therapeutically effective flux rate”.
For CN(C)CCOC(c1ccccc1)c1ccccc1 [diphenhydramine], the Transdermal flux rate ([8]; Table 2, applicant's compositions) was 55.8 μg/cm2/hr.
In the case of OCCOCCN1CCN(C(c2ccccc2)c2ccc(Cl)cc2)CC1 (stereo not drawn) [hydroxyzine], the irritation rating ([1]; in vivo) is reported as ≤ 2.
For CCCCCCCCCCCCCC(=O)OC(C)C [isopropyl myristate], the “Erythema Rating” value ([1]; in vivo) was 0.3.
With CCCCCCCC/C=C\CCCCCCCC(=O)OC(C)C [isopropyl oleate] the “Erythema Rating” value [1, 11] was 0.
For CN1CCCC1c1cccnc1 (stereo not drawn) [nicotine], the Clearance ([7]; Table 2) is listed as 1200 mL/min, the effective blood concentration ([7]; Table 2) is listed as 13 ng/mL and the primary irritation score [9] is listed as “less than 2”. The cal dose rate ([6]; Table 2, clearance times effective blood level) was 936 µg/h.
For COc1ccc(CCN(C)CCCC(C#N)(c2ccc(OC)c(OC)c2)C(C)C)cc1OC (stereo not drawn) [oral form of Varapamil, Varapamil], the “adverse skin reactions (in words)” value [10] is given as “arthralgia and rash, exanthema, hair loss, hyperkeratosis, macules, StevenJohnsons syndrome, and erythema multiforme”.
With CCCCCCCC/C=C\CCCCCCCC(=O)OCCC [propyl oleate] the “Erythema Rating” value [1, 11] was 0.

From patent US5422118A, “Transdermal administration of amines with minimal irritation and high transdermal flux rate” (priority 1992, dated 1995)
